Reference: patent US8703970B2, “Compounds having photochemically removable protecting groups based on an electrocyclic reaction between a chromophore attached via an anilide group to a benzothiophene ring” (Marquette University, priority 2012, dated 2014)
Where two headings read alike, the source gives them in different places.

Assay: Solubility observations on photoproducts
Format: physicochemical
Experimental: Photoproduct 26 was identified by ^1H NMR spectroscopy and elemental analysis. […] Regioisomer 28 would have shown only four vicinal couplings in the COSY spectrum. […] The compound was obtainable only as a powder, despite repeated attempts to obtain crystals for structure determination using X-ray diffraction.
Similarly, preparative photolysis of […] acid 9 (LG^−=Cl^−) in N2 saturated 75% H2O in CH3CN containing 100 mM phosphate buffer (pH 7) gave the single regioisomeric photoproduct 27 in 98% yield by NMR integration, as above for 8 (LG^−=Cl^−). The regiospecificity was again established by 600 MHz ^1H NMR COSY. […] Photolysis of acid 9 (LG^−=PhS^−, HS^−, PhCH2S^−) under the same conditions as 8 (LG^−=Cl^−) also gave photoproduct 27 in 98-100% yields upon expulsion of these thiolate leaving groups. For acid 9 (LG^−=PhCH2S^−) the released benzyl thiol was quantified in photolyses of 4.5×10^−3 M solutions of 35% D2O in CD3CN containing phosphate buffer (as above) contained in NMR tubes. Yields were 96% thiol and 99% of 27 at 100% conversion of reactant by ^1H NMR spectroscopy. Very similar results were found when DMSO-d6 was the photolysis solvent.
A 0.010 M solution of 8 (LG^−=Cl^−) in N2 saturated 17% H2O in CH3CN containing 100 mM phosphate buffer at pH 7 was irradiated with a 450 W Hanovia medium pressure mercury lamp with a Pyrex filter for 90 min. […]

Row | solubility | solubility (in DMSO-d6, 13C-NMR could not be obtained) | SMILES
1 | low solubility | – | COC(=O)c1ccc2c(c1)sc1c(=O)n(C)c3cc4c(=O)c5cc(Br)ccc5sc4cc3c12 [compound 32, 6-methylcarboxylate-[1]benzothiopheno[2,3-c]benzo[a]anthracene-10-bromo-4-methyl-4H-7-thia-4-aza-3,12-dione]
2 | – | low solubility | Cn1c(=O)c2sc3ccccc3c2c2cc3sc4ccccc4c(=O)c3cc21 [compound 31]
